pIC50: −log10 of the molar value.
Target: ClpP1P2 (Mycobacterium tuberculosis (strain ATCC 25618 / H37Rv), UniProt P9WPC3+P9WPC5)
Assay: in vitro assay to detect presence of AMC directly proportional to the activity of ClpP1P2. GHDDI collaboration.
Assay type: functional

ClpP1P2, sequence (P9WPC5 whole entry): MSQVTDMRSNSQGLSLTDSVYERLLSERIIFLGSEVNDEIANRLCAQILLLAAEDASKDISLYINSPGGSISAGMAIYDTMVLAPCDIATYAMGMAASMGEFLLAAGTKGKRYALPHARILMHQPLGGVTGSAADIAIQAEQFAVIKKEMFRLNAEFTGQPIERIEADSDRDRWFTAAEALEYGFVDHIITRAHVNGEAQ
ClpP1P2, sequence (P9WPC3 whole entry): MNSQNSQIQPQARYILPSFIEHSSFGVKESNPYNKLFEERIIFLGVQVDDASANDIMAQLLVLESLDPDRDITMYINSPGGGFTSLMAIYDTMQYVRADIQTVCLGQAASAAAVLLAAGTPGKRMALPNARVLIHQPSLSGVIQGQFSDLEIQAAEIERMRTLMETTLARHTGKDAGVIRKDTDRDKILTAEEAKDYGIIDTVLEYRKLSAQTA

Compound	pIC50
COCCOc1ccc(CNc2cnc3ccccc3n2)cn1	< 4.00
Cn1c(N)c2c(=O)n(C)c(-c3ccc(Cl)cc3Cl)cc2c(C#N)c1=O	< 4.00
CCN(CC)c1ccc(NS(=O)(=O)c2cnn(CC)c2)cn1	< 4.00
CCN(CC)c1ccc(NS(=O)(=O)c2cnn(C(C)C)c2)cn1	< 4.00
CC(C)N(CCC#N)C(=O)c1cnc(-c2ccc3c(c2)OCO3)s1	< 4.00
c1ccc2nc(N3CCCC3c3nnc4n3CCCCC4)cnc2c1 (centres undefined)	< 4.00
c1cnc2nc(N3CCCC3c3nnc4n3CCCCC4)ccc2n1 (centres undefined)	< 4.00
Cc1nc2ccccc2nc1NCc1cccc(OCC2CCCO2)c1 (centres undefined)	< 4.00
CCN(C(=O)CNc1cc(C)c(F)cc1C(N)=O)C1CC1	< 4.00
Cc1cc(NCC(=O)N(C)C)c(C(N)=O)cc1F	< 4.00
Cc1cc(NCC(=O)N(C)Cc2cccs2)c(C(N)=O)cc1F	< 4.00
COc1ccc2c(c1)C(=O)N(C)C1(CCN(CC=C(C)C)CC1)N2	< 4.00
COc1ccc2c(c1)C(=O)N(C)C1(CCN(CC3CC3)CC1)N2	< 4.00
COc1ccc2c(c1)C(=O)N(C)C1(CCN(C(=O)OC(C)(C)C)CC1)N2	< 4.00
COCc1ccccc1CNC(=O)CNc1ccccc1C(C)=O	< 4.00
O=C(NCCCn1cncn1)c1ccc(-c2ccco2)[nH]c1=O	< 4.00
O=C(NCc1nc2cc(F)ccc2[nH]1)c1ccc[nH]1	< 4.00
Cc1nccn1CCCNc1nccnc1C#N	< 4.00
Cc1nc(N2CCCC2)ccc1NCc1ccccn1	< 4.00
CS(=O)(=O)CC1(CNc2cc(C#N)c3cc(Cl)ccc3n2)CC1	< 4.00
CCCn1nc2c(cc1=O)CN(CC(=O)N(C)c1nccs1)CC2	< 4.00
CN(C(=O)CCc1nc(C2CC2)no1)c1cc(C#N)c2ccccc2n1	< 4.00
CNC(=O)c1cc(C)ccc1NCc1cn2cc(C)ccc2n1	< 4.00
Cc1cccc2c1NC1(CCCC1)NC2=O	< 4.00

Compound	pIC50
Cc1cccc2c1NC1(CCOCC1)NC2=O	< 4.00
Cc1cccc2c1C(=O)NC1(CCOCC1)N2	< 4.00
CN(C)C(=O)N1CCN(C(=O)c2ccn3cncc3c2)CC1	< 4.00
O=C1C(Nc2ccc3nccnc3n2)CCN1c1ccccc1F (centres undefined)	< 4.00
O=C1C(Nc2ccc3nccnc3n2)CCN1c1ccccc1 (centres undefined)	< 4.00
O=C1CC(Nc2ccc3nccnc3n2)CN1c1ccccc1 (centres undefined)	< 4.00
O=C(NCC1CCCOC1)c1ccc(-c2cccs2)[nH]c1=O (centres undefined)	< 4.00
CCCC(C)NC(=O)c1ccc(-c2ccco2)[nH]c1=O (centres undefined)	< 4.00
CCC(C)NC(=O)c1ccc(-c2ccco2)[nH]c1=O (centres undefined)	< 4.00
CCCNC(=O)c1ccc(-c2ccco2)[nH]c1=O	< 4.00
CC(COCC(F)(F)F)NC(=O)c1ccc(-c2ccco2)[nH]c1=O (centres undefined)	< 4.00
CCC(C)(C)NC(=O)c1ccc(-c2ccco2)[nH]c1=O	< 4.00
CCN(CC)C(=O)CCNc1cncc(-n2nc(C)cc2C)n1	< 4.00
Cc1cc(C)n(-c2cncc(NCCNC(=O)C(C)C)n2)n1	< 4.00
Cc1cc(C)n(-c2cncc(NCCNC(=O)CC3CCCC3)n2)n1	< 4.00
Cc1cn2c(=O)c(-c3ccnc(N[C@@H](C)CO)n3)cnc2s1	< 4.00
Cc1csc2ncc(-c3ccnc(N4CCCN(C)CC4)n3)c(=O)n12	< 4.00
Cc1sc2ncc(-c3ccnc(NC4CCN(C)CC4)n3)c(=O)n2c1C	< 4.00
Cc1csc2ncc(-c3ccnc(N4CCCC[C@@H]4CO)n3)c(=O)n12	< 4.00
Cc1csc2ncc(-c3ccnc(N4CCN(C)CC4)n3)c(=O)n12	< 4.00
CN(C)c1ccnc(-c2ccnc3c2ccn3C)n1	< 4.00
COCC(C)N1CCc2onc(-c3ccc(F)c(F)c3)c2C1 (centres undefined)	< 4.00
CCC[C@H]1CN(c2cncc(C(=O)N3CCCCC3)n2)C[C@@H]1N(C)C	< 4.00
CC(C)Nc1ccnc(-c2ccnc3c2ccn3C)n1	< 4.00

Compound	pIC50
CCC[C@H]1CN(c2cncc(C(=O)N(C)C)n2)C[C@@H]1N(C)C	< 4.00
Fc1ccccc1-c1cc(N2[C@@H]3CC[C@H]2CNC3)n2nccc2n1	< 4.00
CCOc1ccccc1CC(=O)N1C[C@@H](C(=O)O)[C@H](c2ccncc2)C1	< 4.00
CCC[C@@H]1CN(c2cncc(C(=O)N3CCOCC3)n2)C[C@H]1N(C)C	< 4.00
CC(C)[C@H](Nc1cc(-c2ccncc2)nc2ccnn12)C(N)=O	< 4.00
Nc1nccc(-c2cccc3ccnn23)n1	< 4.00
CC(=O)Nc1ccc2nc(CN(C)Cc3noc(C)n3)ccc2c1	< 4.00
Cc1nc(N2CCCC2C(=O)NC(C)(C)CO)nc2ccccc12 (centres undefined)	< 4.00
Cn1ccc2c(-c3cc(N)nc(N4CCOCC4)n3)ccnc21	< 4.00
Cc1ccc2cc(CN(C)Cc3ccncn3)c(=O)[nH]c2c1	< 4.00
O=C(c1cncc(NCC2COc3ccccc3C2)n1)N1CCOCC1 (centres undefined)	< 4.00
CCCn1cc(-c2cc(-c3cc(CC)n[nH]3)c(C#N)c(N)n2)c(C)n1	< 4.00
COc1ccc2cc(CN(C)CCN3CCCCC3=O)c(=O)[nH]c2c1	< 4.00
Cc1nc(N2CCCC2C(=O)NCc2ccsc2)nc2ccccc12 (centres undefined)	< 4.00
O=C(c1cc(-c2ccco2)nc2c(Cl)cccc12)N1CC[C@H]2CNC[C@H]21	< 4.00
Cn1c(Cn2ccnc2)nnc1C1CCN(C(=O)c2cccnc2)CC1	< 4.00
Cc1ncsc1CCC(=O)NC1CCN(c2ncccc2C#N)CC1	< 4.00
O=C(c1cc(-c2ccco2)nc2c(Cl)cccc12)N1CCS(=O)(=O)CC1	< 4.00
COc1ccc2nc(O)c(CN(C)Cc3ncc[nH]3)cc2c1	< 4.00
Cc1n[nH]c(C)c1-c1cc(-c2cc[nH]c2)nc(N)c1C#N	< 4.00
N#Cc1c(C2CCOC2)cc(-c2ccc(N3CCCCC3)cc2)nc1N (centres undefined)	< 4.00
O=S1(=O)CCC(CNc2cc(-c3ccccc3)nc3ccnn23)C1 (centres undefined)	< 4.00
CCOc1ccc2[nH]c(=O)c(CN3CCCC(CO)(CO)C3)cc2c1	< 4.00
CS(=O)(=O)N1CC[C@]2(O)CCN(c3cc(C#N)ccn3)C[C@@H]2C1	< 4.00

Compound	pIC50
O=C1C[C@H]2CC[C@@H](CN1)N2c1cc(-c2ccccc2F)nc2ccnn12	< 4.00
COc1cccc2ccc(N3CCC(O)(c4ccc(C)cn4)CC3)nc12	< 4.00
CC(C)C1CN(c2cccc(C#N)n2)CCCN1CC1CC1 (centres undefined)	< 4.00
CN(C)S(=O)(=O)N1CC[C@]2(O)CCN(c3cc(C#N)ccn3)C[C@@H]2C1	< 4.00
Cc1cccc(-c2cc(-c3c(C)nn(CCO)c3C)c(C#N)c(N)n2)c1	< 4.00
COC(=O)[C@@H]1C[C@H](NC(=O)c2cc(=O)[nH]c3ccc(C)cc23)CN1C	< 4.00
CCOc1ccc2[nH]c(=O)c(CN3CCC(n4cnnc4)CC3)cc2c1	< 4.00
Cc1nn2c(N3CCCC(C(N)=O)C3)cc(-c3ccccc3)nc2c1C (centres undefined)	< 4.00
COCC(C)N1CCc2onc(-c3ccc(C(F)(F)F)cc3)c2C1 (centres undefined)	< 4.00
CN(C)C(=O)CN1C[C@@H]2CC[C@H](C1)N(Cc1ccc(Cl)cc1Cl)C2	< 4.00
CCNC(=O)[C@@H]1C[C@H](NC(=O)c2cc(=O)[nH]c3ccc(C)cc23)CN1C	< 4.00
Cc1ccc(C#N)c(N2CCC3(CCCN(C4CCOCC4)C3=O)C2)n1 (centres undefined)	< 4.00
CC(=O)N1CCc2[nH]cnc2C1C1=CCCN(CCn2cccc2)C1 (centres undefined)	< 4.00
CCSc1ncc(-c2cc(C3CC3)nc(N)c2C#N)cn1	< 4.00
Cc1n[nH]c(C)c1-c1cc(-c2cccc(O)c2)nc(N)c1C#N	< 4.00
COc1cc(OC)c2nc(NCCN3CCNC3=O)cc(C)c2c1	< 4.00
COc1ccc2cc(CN(C)CCc3cn[nH]c3)c(=O)[nH]c2c1	< 4.00
CNCCN1C(=O)CC[C@H]2CN(c3cnc4ccccc4n3)CC[C@H]21	< 4.00
Cc1ccc(C2(O)CCN(C(=O)CCn3ccc(=O)[nH]c3=O)CC2)nc1	< 4.00
CN(CCN1CCCCC1=O)Cc1cc2cc3c(cc2[nH]c1=O)OCO3	< 4.00
CCOc1ccc2[nH]c(=O)c(CN3CCN(S(N)(=O)=O)CC3)cc2c1	< 4.00
COc1cc2c(cc1-c1nc3c(cnn3C(C)C)[nH]1)OCO2	< 4.00
CNc1cc(C(=O)NCCC2=CSC3=NCCCN23)ccn1	< 4.00
CNC(=O)C1CCCN1c1nc(C)c2ccccc2n1 (centres undefined)	< 4.00

Compound	pIC50
N[C@H]1CN(C(=O)c2ccccc2OCCc2ccccc2)C[C@@H]1C1CC1	< 4.00
CN(C)c1cncc(-c2ccnc3c2ccn3C)n1	< 4.00
Cn1ncc(N2CCOC(CCNC(=O)CO)C2)cc1=O (centres undefined)	< 4.00
CCOC(=O)C1(Cc2ccc(Cl)cc2)CCN(Cc2ncc[nH]2)CC1	< 4.00
CC(c1ccncn1)N(C)Cc1cc2cc3c(cc2[nH]c1=O)OCO3 (centres undefined)	< 4.00
O=C(c1nc(=O)[nH]c2ccccc12)N1CCCC2(CCNC2)C1 (centres undefined)	< 4.00
CC(c1ccccn1)N(C)Cc1cc2cc3c(cc2[nH]c1=O)OCO3 (centres undefined)	< 4.00
CCCn1cc(-c2cc(-c3c[nH]cn3)c(C#N)c(N)n2)c(C)n1	< 4.00
CC(O)c1cn(CC2CCN(C(=O)c3cscn3)CC2)nn1 (centres undefined)	4.07
COc1ccc2c(c1)Cc1c-2nc(N)c(C#N)c1C1CCOC1 (centres undefined)	< 4.00
COc1cccc(-c2cc(NCCO)nc3[nH]ccc23)n1	< 4.00
COc1cc2nc(NCCNS(C)(=O)=O)cc(C)c2cc1OC	< 4.00
CC(c1cccnc1)N(C)Cc1cc2cc3c(cc2[nH]c1=O)OCO3 (centres undefined)	< 4.00
Cc1cc2nc(-c3ccccc3)cc(NCC3CCS(=O)(=O)C3)n2n1 (centres undefined)	< 4.00
CCn1cc(-c2cc(-c3cc(CC(=O)O)cs3)nc(N)c2C#N)c(C)n1	< 4.00
Cn1ccc2c(-c3cc(N4CCOCC4)ncn3)ccnc21	< 4.00
COc1ccc2[nH]c(=O)c(CN(C)CCN3CCCC3)cc2c1	< 4.00
COc1ccc2c(c1OC)Cc1c-2nc(N)c(C#N)c1C1CCOC1 (centres undefined)	< 4.00
COc1cccc2ccc(N3CCC(O)(C(=O)O)CC3)nc12	< 4.00
N#Cc1cc2c(=O)n(CC(O)Cc3ccccc3)ccc2[nH]c1=O (centres undefined)	< 4.00
Cc1nn(C)c(C)c1-c1cc(-c2cc(CC(=O)O)cs2)nc(N)c1C#N	< 4.00
Cc1n[nH]c(C)c1-c1cc(-c2ccc[nH]2)nc(N)c1C#N	< 4.00
Cc1ccnc(NCCCN2CCc3ccccc32)n1	< 4.00

Source: ChEMBL document CHEMBL3988442, “University of Dundee, Small-Polar-MMV Screening Library” (2021)
